The results in this text go back to patent US10532995B2, “Substituted pyrazole compounds as serine protease inhibitors” (VERSEON CORPORATION, priority 2015, dated 2020).

As usually defined, the IC50 is the concentration that inhibits the measured activity by half.

Structures can show the parent of a compound that is named as a salt.

The target in the test is T1, Human thrombin (Homo sapiens, UniProt P00734).
T1 construct: purchased Haematologic Technologies Inc
Kind of test: Thrombin protease activity inhibition, chromogenic substrate S-2238. The test is classed as biochemical. Particulars: 3 nM thrombin, 125 μM S-2238, 10 min pre-incubation, RT. The protocol:
The thrombin activity reported herein (e.g., Table A) was obtained as follows. […] Thrombin was assayed in buffer containing 0.05 M Tris (pH 7.4), 0.015 M NaCl and 0.01% PEG-8000. The final concentration of enzyme used was 3 nM thrombin. […] All assays were performed in 96-well microtiter plates at room temperature (RT). […] Inhibitor IC50 values were determined by adding test compound as ten point, three-fold serial dilutions in buffer solution, as known in the art. The plate was read at 10 minutes after substrate addition. The IC50 was calculated by plotting the percent (%) inhibition against compound concentration and fitting the data to a constrained four parameter sigmoidal curve, as known in the art.
With `CS(=O)(=O)N1CCCC(c2cc(NCc3ccc(Cl)s3)[nH]n2)CC1` (stereo not drawn) [Entry 171, N-[(5-chlorothiophen-2-yl)methyl]-3-(1-methanesulfonylazepan-4-yl)-1H-pyrazol-5-amine], the IC50 is greater than 100 µM.

As for `CS(=O)(=O)N1CC(c2cc(NCc3ccc(Cl)s3)[nH]n2)C1` [Entry 172, N-[(5-chlorothiophen-2-yl)methyl]-3-(1-methanesulfonylazetidin-3-yl)-1H-pyrazol-5-amine], the IC50 is greater than 100 µM.

For `CS(=O)(=O)N1CCC(c2cc(NCc3ccc(Cl)s3)[nH]n2)CC1` [Entry 173, N-[(5-chlorothiophen-2-yl)methyl]-3-(1-methanesulfonylpiperidin-4-yl)-1H-pyrazol-5-amine], the half-maximal inhibitory concentration (IC50) was greater than 100 µM.

For `CS(=O)(=O)N1CCCC1c1cc(NCc2ccc(Cl)s2)[nH]n1` (stereo not drawn) [Entry 174, N-[(5-chlorothiophen-2-yl)methyl]-3-(1-methanesulfonylpyrrolidin-2-yl)-1H-pyrazol-5-amine], the IC50 is greater than 100 µM.

With `CS(=O)(=O)N1CCC(c2cc(NCc3ccc(Cl)s3)[nH]n2)C1` (stereo not drawn) [Entry 175, N-[(5-chlorothiophen-2-yl)methyl]-3-(1-methanesulfonylpyrrolidin-3-yl)-1H-pyrazol-5-amine], the IC50 is greater than 100 µM.

In the case of `FC(F)(F)c1cccc(CN2CCC(c3cc(NCc4ccc(Cl)s4)[nH]n3)CC2)n1` [Entry 176, N-[(5-chlorothiophen-2-yl)methyl]-3-(1-[6-(trifluoromethyl)pyridin-2-yl]methylpiperidin-4-yl)-1H-pyrazol-5-amine], the IC50 is greater than 100 µM.

In turn, `CC1(c2cc(NCc3ccc(Cl)s3)n(C(=O)c3ccsc3)n2)CCCN1` (stereo not drawn) [Entry 177, N-[(5-chlorothiophen-2-yl)methyl]-3-(2-methylpyrrolidin-2-yl)-1-(thiophene-3-carbonyl)-1H-pyrazol-5-amine; formic acid] registered an IC50 of less than 0.1 µM.

Consider `CC1(c2cc(NCc3ccc(Cl)s3)n(C(=O)c3ccsc3)n2)CCCNC1` (stereo not drawn) [Entry 178, N-[(5-chlorothiophen-2-yl)methyl]-3-(3-methylpiperidin-3-yl)-1-(thiophene-3-carbonyl)-1H-pyrazol-5-amine], for which the IC50 is 0.1 to 1 µM.

The molecule `CS(=O)(=O)N1CCNC(c2cc(NCc3ccc(Cl)s3)[nH]n2)C1` (stereo not drawn) [Entry 179, N-[(5-chlorothiophen-2-yl)methyl]-3-(4-methanesulfonylpiperazin-2-yl)-1H-pyrazol-5-amine] yielded an IC50 greater than 100 µM.

Molecule `CC1(c2cc(NCc3ccc(Cl)s3)n(C(=O)c3ccsc3)n2)CCNCC1` [Entry 180, N-[(5-chlorothiophen-2-yl)methyl]-3-(4-methylpiperidin-4-yl)-1-(thiophene-3-carbonyl)-1H-pyrazol-5-amine] showed an IC50 of 1 to 10 µM.

For `O=C(c1ccsc1)n1nc(C2CCOCC2)cc1NCc1ccc(Cl)s1` [Entry 181, N-[(5-chlorothiophen-2-yl)methyl]-3-(oxan-4-yl)-1-(thiophene-3-carbonyl)-1H-pyrazol-5-amine], the IC50 was in the range of 0.1 to 1 µM.

Consider `Clc1ccc(CNc2cc(C3CCOCC3)n[nH]2)s1` [Entry 182, N-[(5-chlorothiophen-2-yl)methyl]-3-(oxan-4-yl)-1H-pyrazol-5-amine], for which the IC50 was greater than 100 µM.

The molecule `O=C(c1ccsc1)n1nc(C2CCCO2)cc1NCc1ccc(Cl)s1` (stereo not drawn) [Entry 183, N-[(5-chlorothiophen-2-yl)methyl]-3-(oxolan-2-yl)-1-(thiophene-3-carbonyl)-1H-pyrazol-5-amine] displayed an IC50 of less than 0.1 µM.

The molecule `Clc1ccc(CNc2cc(C3CCCO3)n[nH]2)s1` (stereo not drawn) [Entry 184, N-[(5-chlorothiophen-2-yl)methyl]-3-(oxolan-2-yl)-1H-pyrazol-5-amine] came in with an IC50 greater than 100 µM.

`O=C(c1ccsc1)n1nc(C2CCCNC2)cc1NCc1ccc(Cl)s1` (stereo not drawn) [Entry 185, N-[(5-chlorothiophen-2-yl)methyl]-3-(piperidin-3-yl)-1-(thiophene-3-carbonyl)-1H-pyrazol-5-amine] displayed an IC50 of 0.1 to 1 µM.

As to `Clc1ccc(CNc2cc(C3CCCNC3)n[nH]2)s1` (stereo not drawn) [Entry 186, N-[(5-chlorothiophen-2-yl)methyl]-3-(piperidin-3-yl)-1H-pyrazol-5-amine], the IC50 was 1 to 10 µM.

For `Clc1ccc(CNc2cc(C3CCCN3)n[nH]2)s1` (stereo not drawn) [Entry 189, N-[(5-chlorothiophen-2-yl)methyl]-3-(pyrrolidin-2-yl)-1H-pyrazol-5-amine], the IC50 was greater than 100 µM.

As for `Clc1ccc(CNc2cc(C3CCNC3)n[nH]2)s1` (stereo not drawn) [Entry 190, N-[(5-chlorothiophen-2-yl)methyl]-3-(pyrrolidin-3-yl)-1H-pyrazol-5-amine], the IC50 was 1 to 10 µM.

Molecule `Clc1ccc(CNc2cc(C3CCN(Cc4ncon4)CC3)n[nH]2)s1` [Entry 191, N-[(5-chlorothiophen-2-yl)methyl]-3-[1-(1,2,4-oxadiazol-3-ylmethyl)piperidin-4-yl]-1H-pyrazol-5-amine] gave an IC50 greater than 100 µM.

Molecule `Clc1ccc(CNc2cc(C3CCN(Cc4ncno4)CC3)n[nH]2)s1` [Entry 192, N-[(5-chlorothiophen-2-yl)methyl]-3-[1-(1,2,4-oxadiazol-5-ylmethyl)piperidin-4-yl]-1H-pyrazol-5-amine] had an IC50 greater than 100 µM.

Turning to `Clc1ccc(CNc2cc(C3CCN(Cc4ncco4)CC3)n[nH]2)s1` [Entry 193, N-[(5-chlorothiophen-2-yl)methyl]-3-[1-(1,3-oxazol-2-ylmethyl)piperidin-4-yl]-1H-pyrazol-5-amine], the IC50 is greater than 100 µM.

In turn, `Clc1ccc(CNc2cc(C3CCN(Cc4cnco4)CC3)n[nH]2)s1` [Entry 194, N-[(5-chlorothiophen-2-yl)methyl]-3-[1-(1,3-oxazol-5-ylmethyl)piperidin-4-yl]-1H-pyrazol-5-amine] displayed an IC50 greater than 100 µM.

As for `Clc1ccc(CNc2cc(C3CCN(Cc4nnn[nH]4)CC3)n[nH]2)s1` [Entry 195, N-[(5-chlorothiophen-2-yl)methyl]-3-[1-(1H-1,2,3,4-tetrazol-5-ylmethyl)piperidin-4-yl]-1H-pyrazol-5-amine], the IC50 is 1 to 10 µM.

Turning to `Clc1ccc(CNc2cc(C3CCN(Cc4cnn[nH]4)CC3)n[nH]2)s1` [Entry 196, N-[(5-chlorothiophen-2-yl)methyl]-3-[1-(1H-1,2,3-triazol-5-ylmethyl)piperidin-4-yl]-1H-pyrazol-5-amine], the 50% inhibitory concentration (IC50) is greater than 100 µM.

`Clc1ccc(CNc2cc(C3CCN(Cc4c[nH]cn4)CC3)n[nH]2)s1` [Entry 197, N-[(5-chlorothiophen-2-yl)methyl]-3-[1-(1H-imidazol-4-ylmethyl)piperidin-4-yl]-1H-pyrazol-5-amine] gave an IC50 of 1 to 10 µM.

`FC(F)(F)CN1CCC(c2cc(NCc3ccc(Cl)s3)[nH]n2)CC1` [Entry 198, N-[(5-chlorothiophen-2-yl)methyl]-3-[1-(2,2,2-trifluoroethyl)piperidin-4-yl]-1H-pyrazol-5-amine] displayed an IC50 greater than 100 µM.

The molecule `COCCN1CCC(c2cc(NCc3ccc(Cl)s3)[nH]n2)CC1` [Entry 200, N-[(5-chlorothiophen-2-yl)methyl]-3-[1-(2-methoxyethyl)piperidin-4-yl]-1H-pyrazol-5-amine] had an IC50 greater than 100 µM.

In the case of `Clc1ccc(CNc2cc(C3CCN(CC4CC4)CC3)n[nH]2)s1` [Entry 201, N-[(5-chlorothiophen-2-yl)methyl]-3-[1-(cyclopropylmethyl)piperidin-4-yl]-1H-pyrazol-5-amine], the IC50 was greater than 100 µM.

Take `O=C(N1CCOCC1)N1CCC(c2cc(NCc3ccc(Cl)s3)[nH]n2)CC1` [Entry 203, N-[(5-chlorothiophen-2-yl)methyl]-3-[1-(morpholine-4-carbonyl)piperidin-4-yl]-1H-pyrazol-5-amine]: the IC50 was greater than 100 µM.

`O=C(N1CCOCC1)N1CCC(c2cc(NCc3ccc(Cl)s3)n(C(=O)c3cscn3)n2)C1` (stereo not drawn) [Entry 205, N-[(5-chlorothiophen-2-yl)methyl]-3-[1-(morpholine-4-carbonyl)pyrrolidin-3-yl]-1-(1,3-thiazole-4-carbonyl)-1H-pyrazol-5-amine] gave an IC50 of less than 0.1 µM.

`O=C(N1CCOCC1)N1CCC(c2cc(NCc3ccc(Cl)s3)[nH]n2)C1` (stereo not drawn) [Entry 206, N-[(5-chlorothiophen-2-yl)methyl]-3-[1-(morpholine-4-carbonyl)pyrrolidin-3-yl]-1H-pyrazol-5-amine]: the IC50 is greater than 100 µM.

The molecule `O=S(=O)(N1CCOCC1)N1CCC(c2cc(NCc3ccc(Cl)s3)[nH]n2)CC1` [Entry 207, N-[(5-chlorothiophen-2-yl)methyl]-3-[1-(morpholine-4-sulfonyl)piperidin-4-yl]-1H-pyrazol-5-amine] gave an IC50 greater than 100 µM.

`Clc1ccc(CNc2cc(C3CCN(Cc4ccccn4)CC3)n[nH]2)s1` [Entry 210, N-[(5-chlorothiophen-2-yl)methyl]-3-[1-(pyridin-2-ylmethyl)piperidin-4-yl]-1H-pyrazol-5-amine] had an IC50 of 1 to 10 µM.

`Clc1ccc(CNc2cc(C3CCN(Cc4cccnc4)CC3)n[nH]2)s1` [Entry 211, N-[(5-chlorothiophen-2-yl)methyl]-3-[1-(pyridin-3-ylmethyl)piperidin-4-yl]-1H-pyrazol-5-amine] came in with an IC50 greater than 100 µM.

Consider `O=C(N1CCOCC1)N1CCNC(c2cc(NCc3ccc(Cl)s3)[nH]n2)C1` (stereo not drawn) [Entry 212, N-[(5-chlorothiophen-2-yl)methyl]-3-[4-(morpholine-4-carbonyl)piperazin-2-yl]-1H-pyrazol-5-amine hydrochloride], for which the IC50 was greater than 100 µM.

For the molecule `O=C(N1CCOCC1)N1C2CCC1CC(c1cc(NCc3ccc(Cl)s3)n(C(=O)c3cscn3)n1)C2` (stereo not drawn) [Entry 213, N-[(5-chlorothiophen-2-yl)methyl]-3-[8-(morpholine-4-carbonyl)-8-azabicyclo[3.2.1]octan-3-yl]-1-(1,3-thiazole-4-carbonyl)-1H-pyrazol-5-amine], the IC50 was less than 0.1 µM.
